Measurements as given in DBAASP.
Converted amounts (≈) assume the structure as drawn. Each block holds one molecule with its values, some of them ahead of it.

Tests used:
Assay in all cases: ≥ marks a high value that may be exact or a test limit, other limits are often not marked, values filed in µg/mL are converted to µM
Streptococcus mutans = system: Streptococcus mutans
Micrococcus luteus = system: Micrococcus luteus
[1] = system: Staphylococcus aureus ATCC 25923
[2] = system: Escherichia coli ATCC 25922
[3] = system: Pseudomonas aeruginosa ATCC 15692
Saccharomyces cerevisiae = system: Saccharomyces cerevisiae
[4] = system: Pseudomonas aeruginosa ATCC 27853
Escherichia coli ML-35 = system: Escherichia coli ML-35
Bacillus megaterium = system: Bacillus megaterium
[5] = system: Salmonella enterica subsp. enterica serovar Typhimurium ATCC 14028
[6] = system: Staphylococcus aureus ATCC 43300
Escherichia coli K-12 = system: Escherichia coli K-12
[7] = system: Staphylococcus aureus ATCC 700699
Staphylococcus aureus = system: Staphylococcus aureus
[8] = system: Staphylococcus epidermidis ATCC 12228
[9] = system: Bacillus subtilis ATCC 23857
[10] = system: Staphylococcus aureus ATCC 29213
Salmonella typhimurium = system: Salmonella typhimurium
Pseudomonas aeruginosa = system: Pseudomonas aeruginosa
[11] = system: Micrococcus luteus ATCC 9341
Klebsiella pneumoniae = system: Klebsiella pneumoniae
[12] = system: Escherichia coli DH5alpha
[13] = system: Escherichia coli ATCC 8739
[14] = system: Staphylococcus aureus ATCC 6538

- MIC (Streptococcus mutans): 16.5 µM (≈ 22.6 µg/mL)
SMILES: CC(C)C[C@H](NC(=O)[C@H](CCCN=C(N)N)NC(=O)[C@H](CCCCN)NC(=O)[C@H](C)N)C(=O)N[C@@H](CC(C)C)C(=O)N[C@@H](CCCCN)C(=O)N[C@H](C(=O)N[C@@H](CC(C)C)C(=O)N[C@@H](CCCCN)C(=O)N[C@@H](CCCN=C(N)N)C(=O)N[C@@H](Cc1ccccc1)C(N)=O)C(C)C [AKRLLKVLKRF]

- MIC (Micrococcus luteus): 0.5 µM (≈ 1.34 µg/mL)
- MIC [1]: 128 µM (≈ 344 µg/mL)
- MIC [2]: 1 µM (≈ 2.69 µg/mL)
- MIC [3]: 4 µM (≈ 10.7 µg/mL)
- MIC (Saccharomyces cerevisiae): 8 µM (≈ 21.5 µg/mL)
SMILES: CC[C@H](C)[C@H](NC(=O)[C@H](C)NC(=O)[C@H](CC(N)=O)NC(=O)[C@@H](NC(=O)CNC(=O)CNC(=O)[C@H](CCCCN)NC(=O)[C@H](C)NC(=O)[C@H](Cc1ccccc1)NC(=O)[C@H](CCCCN)NC(=O)[C@H](CCCCN)NC(=O)[C@H](C)NC(=O)[C@H](Cc1ccccc1)NC(=O)[C@H](CC(N)=O)NC(=O)[C@H](C)NC(=O)[C@@H](NC(=O)[C@H](CCCCN)NC(=O)[C@H](CO)NC(=O)[C@H](CCSC)NC(=O)[C@H](Cc1ccccc1)NC(=O)CN)C(C)C)C(C)C)C(=O)N[C@@H](CCSC)C(=O)N[C@@H](CC(N)=O)C(=O)N[C@@H](CCC(N)=O)C(=O)N[C@@H](CCCCN)C(=O)O [GFMSKVANFAKKFAKGGVNAIMNQK]

- MIC [4]: > 64 µM
- MIC [1]: > 64 µM
- MIC [2]: > 64 µM
- MIC (Escherichia coli ML-35): ≥ 64 µM
- MIC (Bacillus megaterium): ≥ 64 µM
- MIC [5]: > 64 µM
SMILES: CC[C@H](C)[C@H](NC(=O)[C@H](CCCCN)NC(=O)[C@H](CCCCN)NC(=O)[C@H](CC(C)C)NC(=O)[C@H](CCCCN)NC(=O)[C@H](CCC(=O)O)NC(=O)[C@H](CCCCN)NC(=O)[C@@H]1CCCN1C(=O)[C@H](CCCCN)NC(=O)[C@H](CC(N)=O)NC(=O)[C@H](CCCN=C(N)N)NC(=O)[C@@H]1CCCN1C(=O)[C@H](CCCCN)NC(=O)[C@H](CCCN=C(N)N)NC(=O)[C@H](CC(C)C)NC(=O)[C@H](CCCN=C(N)N)NC(=O)[C@H](CCCCN)NC(=O)[C@H](CCCN=C(N)N)NC(=O)[C@H](CC(C)C)NC(=O)CN)C(=O)O [GLRKRLRKPRNKPKEKLKKI]

- MIC [13]: 6.86 µM (≈ 16 µg/mL)
- MIC [1]: 27.4 µM (≈ 64 µg/mL)
SMILES: CC[C@H](C)[C@H](NC(=O)[C@H](CCCCN)NC(=O)[C@H](Cc1ccc(O)cc1)NC(=O)[C@H](Cc1ccccc1)NC(=O)[C@H](CCC(N)=O)NC(=O)[C@H](CO)NC(=O)[C@H](CCC(=O)O)NC(=O)[C@H](CCCN=C(N)N)NC(=O)[C@H](CC(N)=O)NC(=O)[C@@H]1CCCN1)C(=O)N[C@@H](CC(C)C)C(=O)N[C@@H](CCCN=C(N)N)C(=O)N[C@@H](CCCCN)C(=O)N[C@H](C(=O)N[C@@H](CC(C)C)C(=O)N[C@@H](CO)C(=O)N[C@@H](CCCCN)C(=O)N[C@H](C(=O)N[C@H](C(=O)O)C(C)C)[C@@H](C)CC)[C@@H](C)CC [PNRESQFYKILRKILSKIV]

- MIC [13]: 17.7 µM (≈ 38.3 µg/mL)
- MIC [4]: 17.7 µM (≈ 38.3 µg/mL)
- MIC [2]: 35.4 µM (≈ 76.7 µg/mL)
- MIC (Klebsiella pneumoniae): 70.7 µM (≈ 153 µg/mL)
SMILES: CC[C@H](C)[C@H](NC(=O)[C@H](CCCCN)NC(=O)[C@H](CCCN=C(N)N)NC(=O)CNC(=O)[C@H](CC(C)C)NC(=O)[C@H](CCCN=C(N)N)NC(=O)[C@H](CCCN=C(N)N)NC(=O)[C@H](CC(C)C)NC(=O)CNC(=O)[C@H](CCCN=C(N)N)NC(C)=O)C(=O)N[C@@H](CCCCN)C(=O)N[C@@H](CCCCN)C(=O)NCC(=O)N[C@@H](CC(C)C)C(=O)N[C@@H](CCCCN)C(=O)N[C@@H](CCCCN)C(=O)N[C@@H](Cc1ccc(O)cc1)C(=O)NCC(N)=O [RGLRRLGRKIKKGLKKYG]

The remaining lines, values behind:

SMILES: CC(C)C[C@H](NC(=O)CNC(=O)[C@H](C)NC(=O)[C@@H](NC(=O)[C@H](CC(N)=O)NC(=O)[C@H](CO)NC(=O)[C@H](CC(C)C)NC(=O)[C@H](CC(C)C)NC(=O)CN)C(C)C)C(=O)N[C@@H](CC(C)C)C(=O)N[C@@H](CCCCN)C(=O)N[C@@H](CCC(N)=O)C(=O)N[C@@H](Cc1ccccc1)C(=O)N[C@@H](C)C(=O)N[C@@H](CCCCN)C(=O)NCC(=O)NCC(=O)N[C@H](C(=O)N[C@@H](CC(N)=O)C(=O)N[C@@H](C)C(=O)N[C@H](C(=O)N[C@@H](CC(C)C)C(=O)N[C@@H](CC(N)=O)C(=O)N1CCC[C@H]1C(=O)N[C@@H](CCCCN)C(=O)O)C(C)C)C(C)C [GLLSNVAGLLKQFAKGGVNAVLNPK]
- MIC (Micrococcus luteus): 1 µM (≈ 2.51 µg/mL)
- MIC [1]: 128 µM (≈ 321 µg/mL)
- MIC [2]: 8 µM (≈ 20.1 µg/mL)
- MIC [3]: ≥ 32 µM
- MIC (Saccharomyces cerevisiae): ≥ 32 µM

SMILES: CC[C@H](C)[C@H](N)C(=O)NCC(=O)N[C@@H](CCCCN)C(=O)N[C@@H](CCC(=O)O)C(=O)N[C@@H](Cc1ccccc1)C(=O)N[C@@H](CCCCN)C(=O)N[C@@H](CCCNC(=N)N)C(=O)N[C@H](C(=O)N[C@H](C(=O)N[C@@H](CCC(N)=O)C(=O)N[C@@H](CCCNC(=N)N)C(=O)N[C@H](C(=O)N[C@@H](CCCCN)C(=O)N[C@@H](CC(=O)O)C(=O)N[C@@H](Cc1ccccc1)C(=O)N[C@@H](CC(C)C)C(=O)N[C@@H](CCCNC(=N)N)C(=O)N[C@@H](CC(N)=O)C(=O)N[C@@H](CC(C)C)C(=O)N[C@H](C(=O)N1CCC[C@H]1C(=O)N[C@@H](CCCNC(=N)N)C(=O)N[C@H](C(=O)N[C@@H](CCC(=O)O)C(=O)N[C@H](C=O)CO)[C@@H](C)O)C(C)C)[C@@H](C)CC)C(C)C)[C@@H](C)CC [IGKEFKRIVQRIKDFLRNLVPRTES]
- MIC [6]: 168 µM (≈ 509 µg/mL)
- MIC [1]: 168 µM (≈ 509 µg/mL)
- MIC (Escherichia coli K-12): ≥ 80 µM
- MIC [7]: ≥ 336 µM
- MIC (Staphylococcus aureus): 168 µM (≈ 509 µg/mL)

SMILES: CC[C@H](C)[C@H](N)C(=O)N[C@@H](CC(C)C)C(=O)NCC(=O)N[C@H](C(=O)N[C@H](C(=O)N1CCC[C@H]1C(=O)NCC(=O)N[C@@H](CC(C)C)C(=O)N[C@@H](CC(C)C)C(=O)N[C@@H](CCCCN)C(=O)NCC(=O)N[C@@H](CC(C)C)C(N)=O)[C@@H](C)CC)[C@@H](C)O [ILGTIPGLLKGL]
- MIC [2]: > 256 µM
- MIC [8]: > 256 µM
- MIC (Escherichia coli ML-35): ≥ 256 µM
- MIC [9]: ≥ 256 µM
- MIC [10]: > 256 µM

SMILES: CC[C@H](C)[C@H](N)C(=O)N[C@@H](CC(C)C)C(=O)N1CCC[C@H]1C(=O)N[C@@H](Cc1c[nH]c2ccccc12)C(=O)N[C@@H](CCCCN)C(=O)N[C@@H](Cc1c[nH]c2ccccc12)C(=O)N1CCC[C@H]1C(=O)N[C@@H](Cc1c[nH]c2ccccc12)C(=O)N[C@@H](Cc1c[nH]c2ccccc12)C(=O)N[C@@H](C)C(=O)N[C@@H](Cc1c[nH]c2ccccc12)C(=O)N[C@@H](CCCN=C(N)N)C(=O)N[C@@H](CCCN=C(N)N)C(N)=O [ILPWKWPWWAWRR]
- MIC (Salmonella typhimurium): ≥ 50 µM
- MIC (Pseudomonas aeruginosa): 50 µM (≈ 94 µg/mL)
- MIC [11]: 1.6 µM (≈ 3.01 µg/mL)
- MIC (Klebsiella pneumoniae): 25 µM (≈ 47 µg/mL)
- MIC [12]: 15 µM (≈ 28.2 µg/mL)

SMILES: CC[C@H](C)[C@H](NC(=O)[C@H](CCCCN)NC(=O)[C@@H](N)CCCCN)C(=O)N[C@@H](CC(N)=O)C(=O)N[C@@H](CC(N)=O)C(=O)N[C@H](C(=O)N[C@H](C(=O)N[C@@H](CC(C)C)C(=O)N[C@@H](CO)C(=O)NCC(=O)N[C@@H](CC(C)C)C(=O)N[C@@H](CC(=O)O)C(=O)N[C@@H](CO)C(=O)N[C@H](C(=O)N[C@@H](C)C(=O)N[C@@H](CO)C(=O)N[C@@H](Cc1ccccc1)C(=O)N[C@@H](CO)C(=O)O)C(C)C)[C@@H](C)CC)[C@@H](C)O [KKINNTILSGLDSVASFS]
- MIC [13]: ≥ 135 µM
- MIC [1]: > 135 µM

SMILES: CC(C)[C@H](NC(=O)[C@H](CCCCN)NC(=O)[C@H](Cc1ccccc1)NC(=O)[C@@H](NC(=O)[C@@H](NC(=O)[C@@H](N)CCCCN)C(C)C)C(C)C)C(=O)N[C@@H](CCCCN)C(=O)N[C@@H](Cc1ccccc1)C(=O)N[C@@H](CCCCN)C(N)=O [KVVFKVKFK]
- MIC [14]: 5.57 µM (≈ 6.24 µg/mL)
- MIC [11]: 5.57 µM (≈ 6.24 µg/mL)
